Results as given in PubChem BioAssay AID192 (DTP/NCI, 2004).
Values joined by “and” are separate entries in the source; they are usually repeats but may differ in a detail not shown here. Equal values may be shown once. Toxic doses and inconclusive results are not listed.

Test system: BDF1 mice, B16 melanoma ip, median survival T/C
Experiment: NCI In Vivo Anticancer Drug Screen. Data for tumor model B16 Melanoma (intraperitoneal) in B6D2F1 (BDF1) mice
Conditions: endpoint: median survival time, higher = longer survival
How it was run: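 Mice with transplantable tumors; drug vs vehicle groups; endpoint survival or tumor size; value = T/C.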

[1] = dose: 50.0 mg/kg/injection, schedule: Q01DX009 (ip), vehicle: saline with Tween-80
[2] = dose: 100.0 mg/kg/injection, schedule: Q01DX009 (ip), vehicle: saline with Tween-80
[3] = dose: 200.0 mg/kg/injection, schedule: Q01DX009 (ip), vehicle: saline with Tween-80
[4] = dose: 400.0 mg/kg/injection, schedule: Q01DX009 (ip), vehicle: saline with Tween-80
[5] = dose: 25.0 mg/kg/injection, schedule: Q01DX009 (ip), vehicle: saline
[6] = dose: 50.0 mg/kg/injection, schedule: Q01DX009 (ip), vehicle: saline
[7] = dose: 100.0 mg/kg/injection, schedule: Q01DX009 (ip), vehicle: saline
[8] = dose: 50.0 mg/kg/injection, schedule: Q01DX009 (ip), vehicle: Klucel (hydroxypropylcellulose) (HPC)
[9] = dose: 100.0 mg/kg/injection, schedule: Q01DX009 (ip), vehicle: Klucel (hydroxypropylcellulose) (HPC)
[10] = dose: 200.0 mg/kg/injection, schedule: Q01DX009 (ip), vehicle: Klucel (hydroxypropylcellulose) (HPC)
[11] = dose: 1.56 mg/kg/injection, schedule: Q01DX009 (ip), vehicle: saline with Tween-80
[12] = dose: 6.25 mg/kg/injection, schedule: Q01DX009 (ip), vehicle: Klucel (hydroxypropylcellulose) (HPC)
[13] = dose: 6.25 mg/kg/injection, schedule: Q01DX009 (ip), vehicle: saline with Tween-80
[14] = dose: 12.5 mg/kg/injection, schedule: Q01DX009 (ip), vehicle: Klucel (hydroxypropylcellulose) (HPC)
[15] = dose: 12.5 mg/kg/injection, schedule: Q01DX009 (ip), vehicle: saline with Tween-80
[16] = dose: 400.0 mg/kg/injection, schedule: Q01DX009 (ip), vehicle: Klucel (hydroxypropylcellulose) (HPC)
[17] = dose: 3.13 mg/kg/injection, schedule: Q01DX009 (ip), vehicle: saline with Tween-80
[18] = dose: 25.0 mg/kg/injection, schedule: Q01DX009 (ip), vehicle: Klucel (hydroxypropylcellulose) (HPC)
[19] = dose: 3.12 mg/kg/injection, schedule: Q01DX009 (ip), vehicle: saline
[20] = dose: 6.25 mg/kg/injection, schedule: Q01DX009 (ip), vehicle: saline
[21] = dose: 12.5 mg/kg/injection, schedule: Q01DX009 (ip), vehicle: saline

O=NN(CCF)C(=O)NC1C(O)CCCC1O (configuration not stated)
T/C (dose: 1.88 mg/kg/injection, schedule: Q01DX001 (ip), vehicle: saline): 121 % of control
T/C (dose: 7.5 mg/kg/injection, schedule: Q01DX001 (ip), vehicle: saline): 199 % of control
T/C (dose: 15.0 mg/kg/injection, schedule: Q01DX001 (ip), vehicle: saline): 212 % of control
T/C (dose: 30.0 mg/kg/injection, schedule: Q01DX001 (ip), vehicle: saline): 263 % of control
T/C (dose: 60.0 mg/kg/injection, schedule: Q01DX001 (ip), vehicle: saline): 226 % of control

CCC1CN1P(=O)(N(CC)CC)N1CC1CC (configuration not stated)
T/C [1]: 113 % of control
T/C [2]: 117 % of control

COC1(OC)C2C=CC1CC2
T/C [1]: 97 % of control
T/C [2]: 97 % of control
T/C [3]: 90 % of control
T/C [4]: 96 % of control

C1=NCCCN1
T/C [5]: 114 % of control
T/C [6]: 117 % of control
T/C [7]: 113 % of control

Cc1cnc(=S)[nH]c1N
T/C [8]: 108 % of control
T/C [9]: 97 % of control
T/C [10]: 94 % of control

Cc1ccc(S(=O)(=O)N/N=C/C(=O)O)cc1
T/C (dose: 0.78 mg/kg/injection, schedule: Q01DX009 (ip), vehicle: saline with Tween-80): 108 % of control
T/C [11]: 110 % of control
T/C (dose: 3.12 mg/kg/injection, schedule: Q01DX009 (ip), vehicle: saline with Tween-80): 104 % of control
T/C [12]: 103 % of control and 111 % of control
T/C [13]: 104 % of control and 112 % of control
T/C [14]: 121 % of control
T/C [15]: 111 % of control
T/C (dose: 15.0 mg/kg/injection, schedule: Q01DX009 (ip), vehicle: saline with Tween-80): 112 % of control
T/C (dose: 17.5 mg/kg/injection, schedule: Q01DX009 (ip), vehicle: Klucel (hydroxypropylcellulose) (HPC)): 118 % of control
T/C (dose: 23.0 mg/kg/injection, schedule: Q01DX009 (ip), vehicle: saline with Tween-80): 103 % of control
T/C (dose: 53.0 mg/kg/injection, schedule: Q01DX009 (ip), vehicle: saline with Tween-80): 100 % of control
T/C (dose: 70.0 mg/kg/injection, schedule: Q01DX009 (ip), vehicle: Klucel (hydroxypropylcellulose) (HPC)): 151 % of control
T/C (dose: 70.0 mg/kg/injection, schedule: Q01DX009 (ip), vehicle: saline with Tween-80): 115 % of control

CCCCC(CC)COC(=O)/C=C/C(=O)OCC(CC)CCCC (configuration not stated)
T/C [10]: 90 % of control
T/C [16]: 87 % of control

Nc1ccnc(=O)[nH]1
T/C (dose: 32.0 mg/kg/injection, schedule: Q01DX009 (ip), vehicle: Klucel (hydroxypropylcellulose) (HPC)): 98 % of control and 102 % of control
T/C (dose: 32.0 mg/kg/injection, schedule: Q01DX009 (ip), vehicle: saline with Tween-80): 113 % of control
T/C (dose: 32.0 mg/kg/injection, schedule: Q01DX009 (ip), vehicle: saline): 104 % of control
T/C (dose: 64.0 mg/kg/injection, schedule: Q01DX009 (ip), vehicle: Klucel (hydroxypropylcellulose) (HPC)): 101 % of control and 106 % of control
T/C (dose: 64.0 mg/kg/injection, schedule: Q01DX009 (ip), vehicle: saline with Tween-80): 97 % of control
T/C (dose: 64.0 mg/kg/injection, schedule: Q01DX009 (ip), vehicle: saline): 110 % of control
T/C (dose: 128.0 mg/kg/injection, schedule: Q01DX009 (ip), vehicle: Klucel (hydroxypropylcellulose) (HPC)): 103 % of control and 113 % of control
T/C (dose: 128.0 mg/kg/injection, schedule: Q01DX009 (ip), vehicle: saline with Tween-80): 103 % of control
T/C (dose: 128.0 mg/kg/injection, schedule: Q01DX009 (ip), vehicle: saline): 119 % of control
T/C (dose: 256.0 mg/kg/injection, schedule: Q01DX009 (ip), vehicle: Klucel (hydroxypropylcellulose) (HPC)): 94 % of control and 103 % of control
T/C (dose: 256.0 mg/kg/injection, schedule: Q01DX009 (ip), vehicle: saline): 105 % of control
T/C (dose: 512.0 mg/kg/injection, schedule: Q01DX009 (ip), vehicle: Klucel (hydroxypropylcellulose) (HPC)): 100 % of control and 102 % of control
T/C (dose: 512.0 mg/kg/injection, schedule: Q01DX009 (ip), vehicle: saline with Tween-80): 111 % of control
T/C (dose: 512.0 mg/kg/injection, schedule: Q01DX009 (ip), vehicle: saline): 110 % of control

S=C([S][Sn]([c]1ccccc1)([c]1ccccc1)[c]1ccccc1)N1CCOCC1
T/C [11]: 107 % of control
T/C [17]: 100 % of control
T/C [13]: 110 % of control

Nc1ccc(S(=O)(=O)N/N=C/c2ccccc2[N+](=O)[O-])cc1
T/C [17]: 115 % of control
T/C [13]: 96 % of control and 123 % of control
T/C [15]: 99 % of control and 122 % of control
T/C (dose: 25.0 mg/kg/injection, schedule: Q01DX009 (ip), vehicle: saline with Tween-80): 105 % of control
T/C [1]: 118 % of control

CCNNC(=O)[C@@H]1[C@H](c2cc(OC)c(OC)c(OC)c2)c2cc3c(cc2[C@H](O)[C@H]1CO)OCO3
T/C [1]: 94 % of control
T/C [2]: 86 % of control

O=C(Nc1nccs1)Nc1ccccc1C(F)(F)F
T/C [18]: 103 % of control
T/C [8]: 99 % of control
T/C [9]: 97 % of control
T/C [10]: 103 % of control
T/C [16]: 99 % of control

CCCCNC(=O)Nc1ccc(C(=O)OCCCC)cc1
T/C [1]: 96 % of control
T/C [2]: 95 % of control
T/C [3]: 93 % of control

CNCCCN1c2ccccc2CCc2ccccc21
T/C [19]: 105 % of control
T/C [12]: 106 % of control
T/C [20]: 96 % of control
T/C [14]: 101 % of control
T/C [21]: 102 % of control
T/C [18]: 100 % of control
T/C [5]: 87 % of control
T/C [8]: 86 % of control
T/C [6]: 101 % of control

CN(CCO)C1=C(N2CC2)C(=O)C(N(C)CCO)=C(N2CC2)C1=O
T/C (dose: 100.0 micrograms/kg/injection, schedule: Q01DX009 (ip), vehicle: saline): 111 % of control
T/C (dose: 200.0 micrograms/kg/injection, schedule: Q01DX009 (ip), vehicle: saline): 118 % of control

CN(CCCOS(C)(=O)=O)CCCOS(C)(=O)=O
T/C [20]: 115 % of control
T/C (dose: 10.0 mg/kg/injection, schedule: Q01DX009 (ip), vehicle: saline): 185 % of control
T/C (dose: 20.0 mg/kg/injection, schedule: Q01DX009 (ip), vehicle: saline): 150 % of control
T/C [5]: 181 % of control
T/C (dose: 40.0 mg/kg/injection, schedule: Q01DX009 (ip), vehicle: saline): 285 % of control

CCC1(c2ccccc2)SC(=O)NC1=O (configuration not stated)
T/C [1]: 98 % of control
T/C [2]: 104 % of control

Cc1cc(C)c(S(=O)(=O)O)cc1C
T/C [6]: 115 % of control
T/C [7]: 104 % of control
T/C (dose: 200.0 mg/kg/injection, schedule: Q01DX009 (ip), vehicle: saline): 87 % of control

O[C@H](CN1CC1)[C@@H](O)CN1CC1
T/C (dose: 0.13 mg/kg/injection, schedule: Q01DX009 (ip), vehicle: saline): 117 % of control
T/C (dose: 0.25 mg/kg/injection, schedule: Q01DX009 (ip), vehicle: saline): 151 % of control
T/C (dose: 0.5 mg/kg/injection, schedule: Q01DX009 (ip), vehicle: saline): 166 % of control

CC(=O)OC1CCC2(C)C(CC(=O)C(C)C23CCC2(C=COC2)O3)C1(C)C (configuration not stated)
T/C (dose: 6.0 mg/kg/injection, schedule: Q01DX009 (ip), vehicle: Klucel (hydroxypropylcellulose) (HPC)): 101 % of control
T/C (dose: 12.0 mg/kg/injection, schedule: Q01DX009 (ip), vehicle: Klucel (hydroxypropylcellulose) (HPC)): 99 % of control
T/C (dose: 24.0 mg/kg/injection, schedule: Q01DX009 (ip), vehicle: Klucel (hydroxypropylcellulose) (HPC)): 95 % of control
T/C (dose: 48.0 mg/kg/injection, schedule: Q01DX009 (ip), vehicle: Klucel (hydroxypropylcellulose) (HPC)): 99 % of control

CC(=O)OCCN1CC1
T/C [19]: 109 % of control
T/C [20]: 103 % of control
T/C [21]: 100 % of control
T/C [5]: 95 % of control

CC(C)(C)OC(=O)NCCCC(NC(=O)OCc1ccccc1)C(=O)O (configuration not stated)
T/C [1]: 101 % of control
T/C [2]: 96 % of control
T/C [3]: 96 % of control
T/C [4]: 86 % of control

C#CCOCC(O)CCl (configuration not stated)
T/C [5]: 94 % of control
T/C [6]: 105 % of control
T/C [2]: 95 % of control
T/C [7]: 89 % of control

CCCCn1c(=S)[nH]c2ccccc2c1=O
T/C [9]: 98 % of control
T/C [10]: 96 % of control
T/C [16]: 98 % of control
